Test results: US9802895B2, “Indole and benzimidazolecarboxamides as insecticides and acaricides” (BAYER CROPSCIENCE AKTIENGESELLSCHAFT, priority 2014, dated 2017)

What was measured:
[1] = tested on: engorged adult female cattle ticks (Boophilus microplus); test: Boophilus microplus injection test (BOOPMI inj); type: in vivo; settings: assessed after 7 days
Procedure: Boophilus microplus Injection Test (BOOPMI inj) Solvent: dimethyl sulphoxide To produce a suitable active compound formulation, 10 mg of active compound are mixed with 0.5 ml of solvent and the concentrate is diluted with solvent to the desired concentration. 1 μl of the active compound solution is injected into the abdomen of 5 engorged adult female cattle ticks (Boophilus microplus). The animals are transferred into dishes and kept in a climate-controlled room. The efficacy is assessed after 7 days by laying of fertile eggs. Eggs which are not visibly fertile are stored in a climate-controlled cabinet until the larvae hatch after about 42 days. An efficacy of 100% means that none of the ticks has laid any fertile eggs; 0% means that all the eggs are fertile.

[2] = tested on: adult cat fleas (Ctenocephalides felis); test: Ctenocephalides felis oral test (CTECFE); type: in vivo; settings: 100 ppm, oral in cattle blood, after 2 days
Procedure: Ctenocephalides felis-Oral Test ([…]) Solvent: dimethyl sulphoxide To produce a suitable active compound formulation, 10 mg of active compound are mixed with 0.5 ml of dimethyl sulphoxide. Dilution with citrated cattle blood gives the desired concentration. About 20 unfed adult cat fleas (Ctenocephalides felis) are placed into a chamber which is closed at the top and bottom with gauze. A metal cylinder whose bottom end is closed with parafilm is placed onto the chamber. The cylinder contains the blood/active compound preparation, which can be imbibed by the fleas through the parafilm membrane. After 2 days, the kill in % is determined 100% means that all of the fleas have been killed; 0% means that none of the fleas have been killed.

[3] = tested on: L1 larvae of the Australian sheep blowfly (Lucilia cuprina); test: Lucilia cuprina test (LUCICU); type: in vivo; settings: 100 ppm, after 2 days
Procedure: Lucilia cuprina Test (LUCICU) Solvent: dimethyl sulphoxide To produce a suitable active compound formulation, 10 mg of active compound are mixed with 0.5 ml of dimethyl sulphoxide, and the concentrate is diluted with water to the desired concentration. About 20 L1 larvae of the Australian sheep blowfly (Lucilia cuprina) are transferred into a test vessel containing minced horsemeat and the active compound preparation of the desired concentration. After 2 days, the kill in % is determined 100% means that all the larvae have been killed; 0% means that none of the larvae have been killed.

[4] = tested on: adult houseflies (Musca domestica); test: Musca domestica test (MUSCDO); type: in vivo; settings: 100 ppm, after 2 days
Procedure: Musca domestica Test (MUSCDO) Solvent: dimethyl sulphoxide To produce a suitable active compound formulation, 10 mg of active compound are mixed with 0.5 ml of dimethyl sulphoxide, and the concentrate is diluted with water to the desired concentration. Vessels containing a sponge treated with sugar solution and the active compound preparation of the desired concentration are populated with 10 adult houseflies (Musca domestica). After 2 days, the kill in % is determined. 100% means that all of the flies have been killed; 0% means that none of the flies have been killed.

[5] = tested on: larvae of the mustard beetle (Phaedon cochleariae); test: Phaedon cochleariae spray test (PHAECO); type: in vivo; settings: 100 g/ha, after 7 days
Procedure: Phaedon cochleariae—Spray Test (PHAECO)
(§1) Solvent: 78.0 parts by weight of acetone • • 1.5 parts by weight of dimethylformamide
(§2) Emulsifier: alkylaryl polyglycol ether
(§3) To produce a suitable active compound formulation, 1 part by weight of active compound is dissolved using the specified parts by weight of solvent and made up with water containing an emulsifier concentration of 1000 ppm until the desired concentration is attained. To produce further test concentrations, the preparation is diluted with emulsifier-containing water.
After 7 days, the efficacy in % is determined. 100% means that all the beetle larvae have been killed; 0% means that no beetle larvae have been killed.

[6] = tested on: caterpillars of the armyworm (Spodoptera frugiperda); test: Spodoptera frugiperda spray test (SPODFR); type: in vivo; settings: for efficacy: 100 g/ha, spray, after 7 days
Procedure: Spodoptera frugiperda—Spray Test (SPODFR) Solvent: 78.0 parts by weight of acetone • • 1.5 parts by weight of dimethylformamide Emulsifier: alkylaryl polyglycol ether To produce a suitable active compound formulation, 1 part by weight of active compound is dissolved using the specified parts by weight of solvent and made up with water containing an emulsifier concentration of 1000 ppm until the desired concentration is attained. To produce further test concentrations, the preparation is diluted with emulsifier-containing water. Leaf discs of maize (Zea mays) are sprayed with an active compound formulation of the desired concentration and, after drying, populated with caterpillars of the armyworm (Spodoptera frugiperda). After 7 days, the efficacy in % is determined 100% means that all the caterpillars have been killed; 0% means that no caterpillars have been killed. Spodoptera frugiperda—Spray Test (SPODFR) Solvent: 78.0 parts by weight of acetone • • 1.5 parts by weight of dimethylformamide Emulsifier: alkylaryl polyglycol ether To produce a suitable active compound formulation, 1 part by weight of active compound is dissolved using the specified parts by weight of solvent and made up with water containing an emulsifier concentration of 1000 ppm until the desired concentration is attained. To produce further test concentrations, the preparation is diluted with emulsifier-containing water. Leaf discs of maize (Zea mays) are sprayed with an active compound formulation of the desired concentration and, after drying, populated with caterpillars of the armyworm (Spodoptera frugiperda). After the desired period of time, the efficacy in % is determined. 100% means that all the caterpillars have been killed; 0% means that no caterpillars have been killed.

[7] = tested on: greenhouse red spider mite (Tetranychus urticae); test: Tetranychus urticae spray test, OP-resistant (TETRUR); type: in vivo; settings: for efficacy: 100 g/ha, spray, after 6 days
Procedure: Tetranychus urticae—Spray Test, OP-Resistant (TETRUR)
as §1, §2, §3
Discs of bean leaves (Phaseolus vulgaris) infested by all stages of the greenhouse red spider mite (Tetranychus urticae) are sprayed with an active compound formulation of the desired concentration.
After 6 days, the efficacy in % is determined 100% means that all the spider mites have been killed; 0% means that none of the spider mites have been killed.
Tetranychus urticae—Spray Test; OP-Resistant (TETRUR)
After the desired period of time, the efficacy in % is determined 100% means that all the spider mites have been killed; 0% means that none of the spider mites have been killed.

[8] = tested on: mixed thrips population (Frankliniella occidentalis); test: Frankliniella occidentalis spray test (FRANOC); type: in vivo; settings: 7 dat
Procedure: Frankliniella occidentalis—Spray Test (FRANOC) Solvent: 7 parts by weight of dimethylformamide Emulsifier: alkylaryl polyglycol ether To produce a suitable active compound formulation, 1 part by weight of active compound is dissolved using the specified parts by weight of solvent and made up with water containing an emulsifier concentration of 1000 ppm until the desired concentration is attained. To produce further test concentrations, the preparation is diluted with emulsifier-containing water. If the addition of ammonium salts or/and penetrants is required, these are each added in a concentration of 1000 ppm to the formulation solution. Bush bean plants (Phaseolus vulgaris) are sprayed with an active compound preparation of the desired concentration. After drying, the treated plants are infected with a mixed thrips population (Frankliniella occidentalis). After the desired period of time, the plant-protective efficacy in % is determined. 100% means that no damage is evident; 0% means that the damage to the treated plant corresponds to that of the untreated control.

[9] = tested on: L2 larvae of the banded cucumber beetle (Diabrotica balteata); test: Diabrotica balteata drench test (DIABBA); type: in vivo; settings: 8 dat
Procedure: Diabrotica balteata—Drench Test (DIABBA) Solvent: 7 parts by weight of dimethylformamide Emulsifier: 2 parts by weight of alkylaryl polyglycol ether To produce a suitable active compound formulation, 1 part by weight of active compound is mixed with the specified amounts of solvent and emulsifier, and the concentrate is diluted with water to the desired concentration, it being necessary to include the volume of soil which is drenched in the calculation. It should be ensured that a concentration of 40 ppm of emulsifier in the soil is not exceeded. To produce further test concentrations, water is used for dilution. […] After one day, 25 L2 larvae of the banded cucumber beetle (Diabrotica balteata) are added. After 8 days, the efficacy in % is determined 100% means that all 5 plants have germinated and grown; 0% means that none of the plants has emerged.

[10] = log P by HPLC (EEC directive 79/831 Annex V.A8); type: physicochemical; settings: HPLC, reversed-phase column (C18), 43° C., acidic range pH 2.7
Procedure: a) The determination of the M^+ by LC-MS in the acidic range is effected at pH 2.7, acetonitrile (contains 0.1% formic acid) and water as eluents; linear gradient from 10% acetonitrile to 95% acetonitrile, instrument: Agilent 1100 LC system, Agilent MSD system, HTS PAL. The log P values reported in the tables and Preparation Examples above were determined in accordance with EEC directive 79/831 Annex V.A8 by HPLC (High Performance Liquid Chromatography) using a reversed-phase column (C18). Temperature 43° C. The calibration is effected with unbranched alkan-2-ones (having 3 to 16 carbon atoms), for which the logP values are known.

[11] = tested on: green peach aphid (Myzus persicae); test: Myzus persicae spray test; type: in vivo; settings: 100 g/ha, after 6 days
Procedure: Myzus persicae—Spray Test Solvent: 78 parts by weight of acetone • • 1.5 parts by weight of dimethylformamide Emulsifier: alkylaryl polyglycol ether To produce a suitable appropriate active compound formulation, 1 part by weight of active compound is dissolved using the specified parts by weight of solvent and made up with water containing an emulsifier concentration of 1000 ppm until the desired concentration is attained. To produce further test concentrations, the preparation is diluted with emulsifier-containing water. Discs of Chinese cabbage leaves (Brassica pekinensis) infested by all stages of the green peach aphid (Myzus persicae) are sprayed with an active compound formulation of the desired concentration. After 6 days, the efficacy in % is determined. 100% means that all the aphids have been killed; 0% means that none of the aphids have been killed.

Cn1c(C(=O)NC(c2ccc(Cl)c(C(F)(F)F)c2)C(F)(F)F)cc2cc(C(=O)NC3(C(N)=S)CC3)c(Cl)cc21 (stereo not drawn) [I-16]
efficacy (laying of fertile eggs) [1]: 100%
efficacy (kill in %) [2]: 100%
efficacy (kill in %) [3]: 100%
efficacy (kill in %) [4]: 100%
efficacy [5]: 100%
efficacy [6]: 100%
efficacy [7]: 100%
% efficacy (plant-protective) ([8]; 0.8 ppm): 90%
% efficacy (plant-protective) ([8]; 4 ppm): 90%
% efficacy ([9]; 4 ppm): 50%
% efficacy ([9]; 20 ppm): 100%
log P [10]: 3.70

Cn1c(C(=O)NC(c2cc(Cl)c(Cl)c(Cl)c2)C(F)(F)F)cc2cc(C(=O)NC3(C(N)=S)CC3)c(Cl)cc21 (stereo not drawn) [I-20]
efficacy (laying of fertile eggs) [1]: 100%
efficacy (kill in %) [2]: 100%
efficacy (kill in %) [3]: 100%
efficacy (kill in %) [4]: 100%
efficacy [11]: 90%
efficacy [5]: 100%
efficacy [6]: 100%
% efficacy ([6]; SPODFR, 0.8 g/ha, 7 dat): 100%
% efficacy ([6]; SPODFR, 4 g/ha, 7 dat): 100%
efficacy [7]: 100%
log P [10]: 4.07

CCn1c(C(=O)NC(c2cc(Cl)c(Cl)c(F)c2F)C(F)(F)F)cc2cc(C(=O)NC3(C(N)=S)CC3)c(Cl)cc21 (stereo not drawn) [I-29]
efficacy (laying of fertile eggs) [1]: 100%
efficacy (kill in %) [2]: 100%
efficacy (kill in %) [3]: 100%
efficacy (kill in %) [4]: 100%
efficacy [11]: 100%
efficacy [5]: 100%
efficacy [6]: 100%
efficacy [7]: 90%
log P [10]: 4.27

CCn1c(C(=O)NC(c2ccc(F)c(C(F)(F)F)c2)C(F)F)cc2cc(C(=O)NC3(C(N)=S)CC3)c(Cl)cc21 (stereo not drawn) [I-32]
efficacy (laying of fertile eggs) [1]: 100%
efficacy (kill in %) [2]: 100%
efficacy (kill in %) [3]: 100%
efficacy [11]: 90%
efficacy [5]: 100%
efficacy [6]: 100%
efficacy [7]: 100%
log P [10]: 3.41

CCn1c(C(=O)NC(c2cccc(C(F)(F)F)c2)C(F)(F)F)cc2cc(C(=O)NC3(C(N)=S)CC3)c(Cl)cc21 (stereo not drawn) [reference compound]
Emax at 0.8 g/ha ([6]; Spodoptera frugiperda, 168 h, SPODFR, 0.8 g/ha, 7 dat, read-out: % efficacy): 33%
% efficacy (mortality) at a single application rate at 4 g/ha ([6]; Spodoptera frugiperda, 168 h, SPODFR, 4 g/ha, 7 dat): 100%
Emax at 4 g/ha ([7]; Tetranychus urticae, 144 h, TETRUR, 4 g/ha, 6 dat, read-out: % efficacy): 70%
Emax at 20 g/ha ([7]; Tetranychus urticae, 144 h, TETRUR, 20 g/ha, 6 dat, read-out: % efficacy): 100%
Emax at 0.8 ppm ([8]; Thrips, 168 h, 0.8 ppm, read-out: % efficacy (plant-protective)): 60%
Emax at 4 ppm ([8]; Thrips, 168 h, 4 ppm, read-out: % efficacy (plant-protective)): 98%
Emax at 4 ppm ([9]; Diabrotica balteata, soil, 192 h, 4 ppm, read-out: % efficacy): 70%
Emax at 20 ppm ([9]; Diabrotica balteata, soil, 192 h, 20 ppm, read-out: % efficacy): 60%
